Assay results published in PubChem BioAssay (NCI).
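96-well plates; 48 h exposure; 5 concentrations. Endpoints by linear interpolation between flanking doses. Not reached: highest tested concentration assigned. Here, GI50 denotes the concentration required for 50% inhibition of growth. The concentration for full growth arrest is given as TGI.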

Columns and labels:
Experiment in all cases: inhibition of tumour cell growth, NCI panel, 48 h
BT-549 breast = system: BT-549 breast
COLO 205 colon = system: COLO 205 colon
DU-145 prostate = system: DU-145 prostate
HL-60(TB) leukemia = system: HL-60(TB) leukemia
K-562 leukemia = system: K-562 leukemia
MOLT-4 leukemia = system: MOLT-4 leukemia
NCI-H460 lung = system: NCI-H460 lung
NCI-H522 lung = system: NCI-H522 lung
RPMI-8226 leukemia = system: RPMI-8226 leukemia
SF-295 CNS = system: SF-295 CNS

| Compound | GI50 (BT-549 breast) [µM] | TGI (BT-549 breast) [µM] | GI50 (COLO 205 colon) [µM] | TGI (COLO 205 colon) [µM] | GI50 (DU-145 prostate) [µM] | TGI (DU-145 prostate) [µM] | GI50 (HL-60(TB) leukemia) [µM] | TGI (HL-60(TB) leukemia) [µM] | GI50 (K-562 leukemia) [µM] | TGI (K-562 leukemia) [µM] | GI50 (MOLT-4 leukemia) [µM] | TGI (MOLT-4 leukemia) [µM] | GI50 (NCI-H460 lung) [µM] | TGI (NCI-H460 lung) [µM] | GI50 (NCI-H522 lung) [µM] | TGI (NCI-H522 lung) [µM] | GI50 (RPMI-8226 leukemia) [µM] | TGI (RPMI-8226 leukemia) [µM] | GI50 (SF-295 CNS) [µM] | TGI (SF-295 CNS) [µM] |
| --- | --- | --- | --- | --- | --- | --- | --- | --- | --- | --- | --- | --- | --- | --- | --- | --- | --- | --- | --- | --- |
| COc1cc(C2C3=C(COC3=O)Nc3cc4c(cc32)CCC4)cc2c1OCO2 (configuration not stated) | 0.311 | 42.2 | 0.0407 | 0.139 | 0.0411 | 0.296 | 0.033 | 0.724 | 0.0375 | 12.3 | 0.0496 | 15.6 | 0.0394 | 6.18 | 0.02 | 0.0562 | 0.0531 | > 49.2 | 0.0308 | 10.8 |
| Nc1ccc(-c2ccc(N)cc2I)c(I)c1 | 13.8 | 36.1 | 17 | 38.1 | 21.8 | 59.9 | 18.4 | 47.6 | 5.89 | 39.1 | 9.89 | 43.6 | 19.4 | 39.3 | 16.4 | 36.7 | 14 | 37.7 | 15.5 | 33.9 |
| Cc1ccc2c(c1)C(=O)c1c-2n(CCCBr)c(=O)c2cc([N+](=O)[O-])ccc12 | > 100 | > 100 | 87.4 | > 100 | 49.8 | > 100 | 18.3 | > 100 | 32.1 | > 100 | 26.6 | > 100 | 6.43 | > 100 | 12.2 | 96.2 | 19.2 | > 100 | 73.8 | > 100 |
| COc1cc(C2CC(c3ccc(N(C)C)cc3)=NN2C(C)=O)cc(OC)c1OC (configuration not stated) | 2.53 | > 100 | 3.06 | > 41.4 | 2.29 | > 35 | 7.94 | > 25.1 | 1.74 | > 100 | 12.8 | > 100 | 1.41 | > 100 | 1.95 | > 27.1 | 3.77 | > 39.3 | 0.374 | > 100 |
| Cn1ccnc1C(=O)/C=C/c1ccc(CC(=O)Nc2ccc(C(F)(F)F)cc2)cc1 | 2.56 | 5.33 | 3.17 | 6.17 | 2.97 | 6.42 | 1.8 | 9.82 | 0.614 | > 16.7 | 1.17 | 8.06 | 2.99 | 9.42 | 3.35 | 6.39 | 0.869 | 5.17 | 2.56 | 5.17 |
| c1ccc(CSc2nnc3c4ccccc4c4ccccc4c3n2)cc1 |  | > 100 |  | > 100 |  | > 100 |  | > 100 |  | > 100 |  | > 100 |  | > 100 |  | 97.9 |  | > 100 |  | 62.3 |
| COC(=O)C(F)C(Br)C(=O)OC (configuration not stated) |  | 31 |  | 3.46 |  | 27.5 |  | 3.93 |  | 3.72 |  | 3.01 |  | 39.3 |  | 3.94 |  | 3.88 |  | 70.1 |
| CC(C)N1C(NNC(=O)c2cnccn2)=NS(=O)(=O)c2ccccc21 | > 100 | > 100 | > 100 | > 100 | > 100 | > 100 | > 100 | > 100 | > 100 | > 100 | > 100 | > 100 | > 100 | > 100 | > 100 | > 100 | > 100 | > 100 | > 100 | > 100 |
| C/C=C/[C@@H]1OC(=O)C2=C[C@@H](O)[C@@H](/C=C/C)O[C@H]21 | 2.31 | 8.67 | 2.2 | 6.9 | 0.989 | 4.83 | 7.47 | > 100 | 1.84 |  | 1.73 | > 19.7 | 25.6 | 63.7 | 1.93 |  | 1.14 | 3.76 | 18 | 44.8 |
| OCC1OC(n2cnc3c(=S)nc[nH]c32)C(O)C1O (configuration not stated) | 62.7 | > 2500 | 8.34 | > 2450 |  | > 2500 | 3.82 | > 2210 | 1.04 | > 2500 | 2.58 | > 2500 | 7.72 | > 2500 | 9.27 | > 2500 | 2.57 | > 2500 | 3.49 | > 2500 |
| Cn1cc(-c2ccc(-c3cn(C)c4ccc(Cl)cc34)s2)c2cc(Cl)ccc21 | > 100 | > 100 | > 100 | > 100 | > 100 | > 100 | > 100 | > 100 | > 100 | > 100 | > 100 | > 100 | > 100 | > 100 | > 100 | > 100 | > 100 | > 100 | > 100 | > 100 |
